# Measured values reported in patent publication US20250304567A1, “PYRROLIDIONE DERIVATIVES AS INHIBITORS OF NF KAPPA B INDUCING KINASE” (priority 2022, published 2025).
# Key:
# [1] = target: Recombinant Human NF-kappaB-Inducing Kinase (NIK/MAP3K14) (Homo sapiens, UniProt Q99558); assay: Inhibition of auto-phosphorylation of recombinant human NIK/MAP3K14 activity (AlphaScreen); format: biochemical; settings: 5 μM ATP, 1 nM NIK, average if tested more than once
# Summary of the method: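 GST-tagged NIK (1 nM) auto-phosphorylation with 5 μM ATP, 2 h at 25 °C, pH 7.5 Tris buffer, 0.7% DMSO; stopped with anti-phospho-IKK Ser176/180 antibody and read by AlphaScreen. Signal normalized to full-activity and no-enzyme/no-ATP controls; IC50 from sigmoidal fit of % inhibition vs log concentration.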
# [2] = test system: p-IKKa levels in L363 (NIK translocated multiple myeloma) cells; assay: Effect of compounds on p-IKKa levels in L363 (NIK translocated multiple myeloma) cells (AlphaLISA SureFire Ultra p-IKKa Ser176/180); format: cell-based, human; settings: Homo sapiens, L-363, p-IKKa levels in L363 cells; average if tested more than once; read-out: Assay 2 IC50
# Summary of the method: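 L363 multiple myeloma cells, BAFF-stimulated overnight (250 ng/ml), then 6 h at 37 °C with compound (11-point 1:3 series, 0.3% DMSO) plus BAFF and 10 μM MG132. p-IKKa Ser176/180 read by AlphaLISA SureFire Ultra; IC50 from sigmoidal fit normalised to stimulated and unstimulated controls.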
# Chain of Recombinant Human NF-kappaB-Inducing Kinase (NIK/MAP3K14) (Q99558 whole entry): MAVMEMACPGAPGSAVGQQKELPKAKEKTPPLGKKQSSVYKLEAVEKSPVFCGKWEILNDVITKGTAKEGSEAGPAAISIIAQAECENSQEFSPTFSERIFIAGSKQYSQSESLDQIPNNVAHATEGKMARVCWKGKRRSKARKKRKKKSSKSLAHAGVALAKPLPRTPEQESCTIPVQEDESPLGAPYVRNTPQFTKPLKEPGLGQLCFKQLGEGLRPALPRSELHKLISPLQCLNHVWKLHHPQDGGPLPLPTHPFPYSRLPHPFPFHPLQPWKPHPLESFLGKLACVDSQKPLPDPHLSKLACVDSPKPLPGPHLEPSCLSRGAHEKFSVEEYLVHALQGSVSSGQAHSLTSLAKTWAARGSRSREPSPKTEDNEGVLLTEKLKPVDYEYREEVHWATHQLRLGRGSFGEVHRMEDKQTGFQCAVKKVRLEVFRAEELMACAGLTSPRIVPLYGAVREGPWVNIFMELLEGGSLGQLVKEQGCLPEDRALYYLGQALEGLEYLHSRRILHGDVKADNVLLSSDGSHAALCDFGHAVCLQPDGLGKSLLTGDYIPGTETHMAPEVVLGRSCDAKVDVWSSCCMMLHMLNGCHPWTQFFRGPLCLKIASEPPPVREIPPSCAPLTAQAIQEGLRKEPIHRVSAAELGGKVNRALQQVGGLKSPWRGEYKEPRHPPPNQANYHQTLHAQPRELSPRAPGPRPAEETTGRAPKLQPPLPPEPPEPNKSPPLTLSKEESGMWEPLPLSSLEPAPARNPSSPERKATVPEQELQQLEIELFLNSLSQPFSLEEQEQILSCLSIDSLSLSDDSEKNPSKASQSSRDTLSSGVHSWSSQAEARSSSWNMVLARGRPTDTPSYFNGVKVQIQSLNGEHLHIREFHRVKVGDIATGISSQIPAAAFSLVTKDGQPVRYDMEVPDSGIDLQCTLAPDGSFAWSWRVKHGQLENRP
Compound,IC50 [1],IC50 [2]
"COc1nn(C)cc1Nc1nccc(-c2csc(-c3cccc([C@]4(O)CCN(C)C4=O)c3)n2)n1 [Example 104, (R)-3-hydroxy-3-(3-(4-(2-((3-methoxy-1-methyl-1H-pyrazol-4-yl)amino)pyrimidin-4-yl)thiazol-2-yl)phenyl)-1-methylpyrrolidin-2-one]",< 100 nM,< 100 nM
"Cc1cc(Nc2nccc(-c3csc(-c4cccc([C@]5(O)CCN(C)C5=O)c4)n3)n2)ncn1 [Example 106, (R)-3-hydroxy-1-methyl-3-(3-(4-(2-((6-methylpyrimidin-4-yl)amino)pyrimidin-4-yl)thiazol-2-yl)phenyl)pyrrolidin-2-one]",< 100 nM,> 501 nM
"COCCn1nc(C)cc1Nc1nccc(-c2csc(-c3cccc([C@]4(O)CCN(C)C4=O)c3)n2)n1 [Example 107, (R)-3-hydroxy-3-(3-(4-(2-((1-(2-methoxyethyl)-3-methyl-1H-pyrazol-5-yl)amino)pyrimidin-4-yl)thiazol-2-yl)phenyl)-1-methylpyrrolidin-2-one]",> 501 nM,> 501 nM
"CN1CC[C@@](O)(c2cccc(-c3nc(-c4ccnc(N[C@H]5CCC[C@@H]5O)n4)cs3)c2)C1=O [Example 108, (R)-3-hydroxy-3-(3-(4-(2-(((1S,2S)-2-hydroxycyclopentyl)amino)pyrimidin-4-yl)thiazol-2-yl)phenyl)-1-methylpyrrolidin-2-one]",100 to 500 nM,> 501 nM
"CN1CC[C@@](O)(c2cccc(-c3nc(-c4ccnc(N[C@H]5C[C@H](O)C5)n4)cs3)c2)C1=O [Example 109, (R)-3-hydroxy-3-(3-(4-(2-(((1R,3R)-3-hydroxycyclobutyl)amino)pyrimidin-4-yl)thiazol-2-yl)phenyl)-1-methylpyrrolidin-2-one]",100 to 500 nM,> 501 nM
"Cc1ncc(CNc2nccc(-c3csc(-c4cccc([C@]5(O)CCN(C)C5=O)c4)n3)n2)o1 [Example 110, (R)-3-hydroxy-1-methyl-3-(3-(4-(2-(((2-methyloxazol-5-yl)methyl)amino)pyrimidin-4-yl)thiazol-2-yl)phenyl)pyrrolidin-2-one]",< 100 nM,> 501 nM
"CN1CC[C@@](O)(c2cccc(-c3nc(-c4ccnc(NCc5ncco5)n4)cs3)c2)C1=O [Example 111, (R)-3-hydroxy-1-methyl-3-(3-(4-(2-((oxazol-2-ylmethyl)amino)pyrimidin-4-yl)thiazol-2-yl)phenyl)pyrrolidin-2-one]",< 100 nM,> 501 nM
"CC(Nc1nccc(-c2csc(-c3cccc([C@]4(O)CCN(C)C4=O)c3)n2)n1)c1ccn(C)n1 (stereo partly drawn) [Example 112, (R)-3-hydroxy-1-methyl-3-(3-(4-(2-(((R,S)-1-(1-methyl-1H-pyrazol-3-yl)ethyl)amino)pyrimidin-4-yl)thiazol-2-yl)phenyl)pyrrolidin-2-one]",< 100 nM,> 501 nM
"Cc1cc(CNc2nccc(-c3csc(-c4cccc([C@]5(O)CCN(C)C5=O)c4)n3)n2)n[nH]1 [Example 113, (R)-3-hydroxy-1-methyl-3-(3-(4-(2-(((3-methyl-1H-pyrazol-5-yl)methyl)amino)pyrimidin-4-yl)thiazol-2-yl)phenyl)pyrrolidin-2-one]",< 100 nM,> 501 nM
"Cc1ccnc(CNc2nccc(-c3csc(-c4cccc([C@]5(O)CCN(C)C5=O)c4)n3)n2)n1 [Example 114, (R)-3-hydroxy-1-methyl-3-(3-(4-(2-(((4-methylpyrimidin-2-yl)methyl)amino)pyrimidin-4-yl)thiazol-2-yl)phenyl)pyrrolidin-2-one]",100 to 500 nM,> 501 nM
"CN1CC[C@@](O)(c2cccc(-c3nc(-c4ccnc(NC5[C@@H]6COC[C@@H]56)n4)cs3)c2)C1=O (stereo partly drawn) [Example 115, (R)-3-(3-(4-(2-(((1R,5R)-3-oxabicyclo[3.1.0]hexan-6-yl)amino)pyrimidin-4-yl)thiazol-2-yl)phenyl)-3-hydroxy-1-methylpyrrolidin-2-one]",100 to 500 nM,> 501 nM
"CC(C)Cn1cnc(Nc2nccc(-c3csc(-c4cccc([C@]5(O)CCN(C)C5=O)c4)n3)n2)c1 [Example 116, (R)-3-hydroxy-3-(3-(4-(2-((1-isobutyl-1H-imidazol-4-yl)amino)pyrimidin-4-yl)thiazol-2-yl)phenyl)-1-methylpyrrolidin-2-one]",< 100 nM,> 501 nM
"CN1CC[C@@](O)(c2cccc(-c3nc(-c4ccnc(Nc5cn(CCF)cn5)n4)cs3)c2)C1=O [Example 117, (R)-3-(3-(4-(2-((1-(2-fluoroethyl)-1H-imidazol-4-yl)amino)pyrimidin-4-yl)thiazol-2-yl)phenyl)-3-hydroxy-1-methylpyrrolidin-2-one]",< 100 nM,100 to 500 nM
"Cc1c(CNc2nccc(-c3csc(-c4cccc([C@]5(O)CCN(C)C5=O)c4)n3)n2)cnn1C [Example 118, (R)-3-(3-(4-(2-(((1,5-dimethyl-1H-pyrazol-4-yl)methyl)amino)pyrimidin-4-yl)thiazol-2-yl)phenyl)-3-hydroxy-1-methylpyrrolidin-2-one]",< 100 nM,> 501 nM
"CC(Nc1nccc(-c2csc(-c3cccc([C@]4(O)CCN(C)C4=O)c3)n2)n1)c1ccnn1C (stereo partly drawn) [Example 119, (R)-3-hydroxy-1-methyl-3-(3-(4-(2-(((R,S)-1-(1-methyl-1H-pyrazol-5-yl)ethyl)amino)pyrimidin-4-yl)thiazol-2-yl)phenyl)pyrrolidin-2-one]",< 100 nM,100 to 500 nM
"CN1CC[C@@](O)(c2cccc(-c3nc(-c4ccnc(NC5CCN(c6cnn(C)c6)C5)n4)cs3)c2)C1=O (stereo partly drawn) [Example 120, (R)-3-hydroxy-1-methyl-3-(3-(4-(2-(((R,S)-1-(1-methyl-1H-pyrazol-4-yl)pyrrolidin-3-yl)amino)pyrimidin-4-yl)thiazol-2-yl)phenyl)pyrrolidin-2-one]",100 to 500 nM,> 501 nM
"CC(Nc1nccc(-c2csc(-c3cccc([C@]4(O)CCN(C)C4=O)c3)n2)n1)c1cnn(C)c1 (stereo partly drawn) [Example 121, (R)-3-hydroxy-1-methyl-3-(3-(4-(2-(((R,S)-1-(1-methyl-1H-pyrazol-4-yl)ethyl)amino)pyrimidin-4-yl)thiazol-2-yl)phenyl)pyrrolidin-2-one]",< 100 nM,100 to 500 nM
"CN1CC[C@@](O)(c2cccc(-c3nc(-c4ccnc(NC[C@@H]5CCCO5)n4)cs3)c2)C1=O [Example 122, (R)-3-hydroxy-1-methyl-3-(3-(4-(2-((((S)-tetrahydrofuran-2-yl)methyl)amino)pyrimidin-4-yl)thiazol-2-yl)phenyl)pyrrolidin-2-one]",< 100 nM,> 501 nM
"CN1CC[C@@](O)(c2cccc(-c3nc(-c4ccnc(NC5CCCn6nccc65)n4)cs3)c2)C1=O (stereo partly drawn) [Example 123, (R)-3-hydroxy-1-methyl-3-(3-(4-(2-(((R,S)-4,5,6,7-tetrahydropyrazolo[1,5-a]pyridin-4-yl)amino)pyrimidin-4-yl)thiazol-2-yl)phenyl)pyrrolidin-2-one]",< 100 nM,> 501 nM
"CN1CC[C@@](O)(c2cccc(-c3nc(-c4ccnc(Nc5cn(C6CCC6)cn5)n4)cs3)c2)C1=O [Example 124, (R)-3-(3-(4-(2-((1-cyclobutyl-1H-imidazol-4-yl)amino)pyrimidin-4-yl)thiazol-2-yl)phenyl)-3-hydroxy-1-methylpyrrolidin-2-one]",< 100 nM,> 501 nM
"CN1CC[C@@](O)(c2cccc(-c3nc(-c4ccnc(Nc5cn(CC6CCC6)cn5)n4)cs3)c2)C1=O [Example 125, (R)-3-(3-(4-(2-((1-(cyclobutylmethyl)-1H-imidazol-4-yl)amino)pyrimidin-4-yl)thiazol-2-yl)phenyl)-3-hydroxy-1-methylpyrrolidin-2-one]",< 100 nM,> 501 nM
"CN1CC[C@@](O)(c2cccc(-c3csc(-c4ccnc(NC5COC5)n4)n3)c2)C1=O [Example 128, (R)-3-hydroxy-1-methyl-3-(3-(2-(2-(oxetan-3-ylamino)pyrimidin-4-yl)thiazol-4-yl)phenyl)pyrrolidin-2-one]",< 100 nM,100 to 500 nM
"CN1CC[C@@](O)(c2cccc(-c3nc(-c4ccnc(NC5CCC5)n4)cs3)c2)C1=O [Example 131, (R)-3-(3-(4-(2-(cyclobutylamino)pyrimidin-4-yl)thiazol-2-yl)phenyl)-3-hydroxy-1-methylpyrrolidin-2-one]",< 100 nM,> 501 nM
"CN1CC[C@@](O)(c2cccc(-c3ccn(-c4ccnc(NC5COC5)n4)n3)c2)C1=O [Example 132, (R)-3-hydroxy-1-methyl-3-(3-(1-(2-(oxetan-3-ylamino)pyrimidin-4-yl)-1H-pyrazol-3-yl)phenyl)pyrrolidin-2-one]",< 100 nM,100 to 500 nM
"CN1CC[C@@](O)(c2cccc(-c3nc(-c4ccnc(NC5CC5)n4)cs3)c2)C1=O [Example 137, (R)-3-(3-(4-(2-(cyclopropylamino)pyrimidin-4-yl)thiazol-2-yl)phenyl)-3-hydroxy-1-methylpyrrolidin-2-one]",< 100 nM,> 501 nM
"Cc1nn(C(F)F)cc1Nc1nccc(-c2csc(-c3cccc([C@]4(O)CCN(C)C4=O)c3)n2)n1 [Example 140, (R)-3-(3-(4-(2-((1-(difluoromethyl)-3-methyl-1H-pyrazol-4-yl)amino)pyrimidin-4-yl)thiazol-2-yl)phenyl)-3-hydroxy-1-methylpyrrolidin-2-one]",< 100 nM,< 100 nM
